1 compound from patent US9597280B2, “Cosmetic compositions comprising microalgal oil” (TerraVia Holdings, Inc., priority 2013, dated 2017) can be followed below.

The subject of data set [1] is MatTek's EpiDerm tissue. In words: Thymine dimer formation in EpiDerm skin tissue model after UVB exposure. Format: cell-based, human. The settings on record: positive control, topical 24 hours after UVB 300 mJ/cm2; mean ± standard deviation; significantly different from Untreated (p < 0.05). The method, then:
Oil was extracted from heterotrophic ally cultivated Chlorella protothecoides followed by refining, bleaching and deodorization. The oil was tested for its ability to prevent thymine dimerization in a skin tissue model upon exposure to UVB (ultraviolet light of the B type). The testing system used for this assay was MatTek's EpiDerm tissue, a skin model that consists of normal human-derived epidermal keratinocytes cultured to form a multilayered, highly differentiated model of the human epidermis. For this study, the tissues were exposed to UVB (300 mJ/cm2) and then treated topically for 24 hours with the test material. Following the treatment the DNA was extracted from the EpiDerm tissues and assayed for thymine dimer content. […] The primary antibody was then detected using a secondary antibody conjugated to a fluorescent dye. […] With this method, the fluorescence intensity of each sample is proportional to the amount of the thymine dimers present in the sample. […] UVB lamp intensity was measured using a UVX radiometer with a probe specific for UVB (detects 260-360 nm, max absorbance at 310 nm, calibrated at 310 nm) to determine exposure times required for the appropriate UVB dose. […] Extracted DNA was quantified via a fluorometric assay. […]

Data set [2] relates to MatTek's EpiDerm tissue. The data set can be described thus: MTT (viability) assay in EpiDerm skin tissue model after UVB exposure. It counts as cell-based, human. The conditions noted are these: positive control, topical 24 hours after UVB 300 mJ/cm2; mean ± standard deviation; significantly different from Untreated (p < 0.05). The source says: Oil was extracted from heterotrophically cultivated Chlorella protothecoides followed by refining, bleaching and deodorization. A skin tissue model was used to evaluate changes in tissue viability after exposure to UVB radiation. The testing system used for this assay was MatTek's EpiDerm tissue, a skin model that consists of normal human-derived epidermal keratinocytes cultured to form a multilayered, highly differentiated model of the human epidermis. For this study, the tissues were exposed to UVB (300 mJ/cm2) and then treated topically for 24 hours with the test material. Following the treatment tissue changes in tissue viability were determined using an MTT assay. […] Reduction of MTT by mitochondria in viable cells results in the formation of insoluble purple formazin crystals that are extracted from the cells with isopropanol and quantified spectrophotometrically. […] UVB lamp intensity was measured using a UVX radiometer with a probe specific for UVB (detects 260-360 nm, max absorbance at 310 nm, calibrated at 310 nm) to determine exposure times required for the appropriate UVB dose. […] After the extraction, a 200 μl sample of the isopropanol/MTT mixture was transferred to a 96-well plate and the absorbance of the sample was read at 540 nm with a plate reader using 200 μl of isopropanol as the blank. […] Values are expressed as means±standard deviation.

`Cc1c(C)c2c(c(C)c1O)CCC(C)(C(=O)O)O2` (centres unmarked) [Trolox, 6-hydroxy-2,5,7,8-tetramethylchroman-2-carboxylic acid]: in the data set on MatTek's EpiDerm tissue [1], the “Thymine Dimer Formation, Corrected RFU” value turned out to be 5198 ± 513 RFU. In addition, the “Viability (Percent of Non-UVB Exposed)” value in the data set on MatTek's EpiDerm tissue [2] was 100 ± 1.3% of Non-UVB Exposed.
